The values below are quoted from earlier work in patent publication US5279834A, “Pharmaceutical or cosmetic composition containing hydroquinone and kojic acid” (priority 1987, dated 1994).

The conditions of this series: background statement; The Journal of Investigative Dermatology 73, 354-358 (1979).

For `CC1=C(/C=C/C(C)=C/C=C/C(C)=C/C(=O)O)C(C)(C)CCC1` [vitamin A acid], the irritant character entry was “well known for its irritant character”.
